Patent US7109338B2, “1,2-disubstituted 1,4-dihydro-4-oxoquinoline compounds” (priority 1999, dated 2006)
In brackets after ≈: the same amount, converted by molar mass.

Experiments:
[1] = tested on: HRV21 (47); assay: Anti-rhinovirus spectrum (MTT), HRV21; type: cell-based, human rhinovirus; set-up: Anti-Rhinovirus activity, HRV21: unit not given here; settings: HRV21
[2] = tested on: HRV 89 (41617-Gallo); assay: Anti-rhinovirus activity (MTT), HRV89; type: cell-based, human rhinovirus; set-up: Anti-Rhinovirus activity, HRV89: unit not given here
[3] = tested on: HRV36 (342H); assay: Anti-rhinovirus spectrum (MTT), HRV36; type: cell-based, human rhinovirus; set-up: Anti-Rhinovirus activity, HRV36: unit not given here; settings: HRV36
[4] = tested on: clinical isolate (89229T); assay: microbe, parasite or virus in culture; type: cell-based, human rhinovirus; set-up: Anti-Rhinovirus activity, Clinical isolated strain: unit not given here; settings: Clinical isolated strain
[5] = tested on: HRV50(A2#58); assay: Anti-rhinovirus spectrum (MTT), HRV50; type: cell-based, human rhinovirus; set-up: Anti-Rhinovirus activity, HRV50: unit not given here; settings: HRV50
[6] = tested on: HRV16 (11757); assay: Anti-rhinovirus spectrum (MTT), HRV16; type: cell-based, human rhinovirus; set-up: Anti-Rhinovirus activity, HRV16: unit not given here; settings: HRV16
[7] = tested on: simian rotavirus (SRoV, SA11); assay: In vitro anti-rotavirus activity (plaque reduction), SRoV; type: cell-based; settings: MA104 cells, four days after infection
Description: (§1) Human rotavirus (HROV, Odelia) and simian rotavirus (SRoV, SA11) were used in this experiment. Confluent monolayers of MA104 cells in 6-well multiplate were washed with Eagle MEM containing 0.5 μg/ml of trypsin and were infected with tripsinized-rotavirus (treated with 10 μg/ml of tripsin at 37° C. for 1.5 hr) at 50 PFU per well. After 1 hr of adsorption, the virus inoculum was removed, and the monolayers were washed with Eagle MEM containing 0.5 μg/ml of trypsin and overlaid with Eagle MEM containing 1 μg/ml of trypsin, 0.6% purified agar and the test compounds at various concentrations. The cultures were incubated at 37° C. for 3 days and same overlay medium was added. Four days after infection, the cell sheets were washed with PBS and stained with 1.3% crystal violet in 95% ethanol. The antiviral efficacy of the compounds was expressed as the IC50, that is the concentration of the compounds required to reduce the number of plaques to 50% in the control (virus-infected, but […]).

[8] = tested on: HeLa-S3 cells; assay: Cytotoxicity (MTT, without virus), HeLa-S3; settings: HeLa-S3, no virus, incubated for 4 days
[9] = tested on: HRV61 (6669-CV39); assay: Anti-rhinovirus spectrum (MTT), HRV61; type: cell-based, human rhinovirus; set-up: Anti-Rhinovirus activity, HRV61: unit not given here; settings: HRV61
[10] = tested on: Human rotavirus (HROV, Odelia); assay: In vitro anti-rotavirus activity (plaque reduction), HRoV; type: cell-based; settings: MA104 cells, four days after infection
Description: as §1

[11] = tested on: HRV5; assay: Anti-rhinovirus spectrum (MTT), HRV5; type: cell-based, human rhinovirus; set-up: Anti-Rhinovirus activity, HRV5: unit not given here; settings: HRV5
[12] = tested on: HeLa (Ohio strain)cells; assay: Cytotoxicity (MTT, without virus), HeLa(Ohio); settings: HeLa(Ohio), no virus, incubated for 4 days
[13] = tested on: HRV14 (1059); assay: Anti-rhinovirus activity (MTT), HRV14; type: cell-based, human rhinovirus; set-up: Anti-Rhinovirus activity, HRV14: unit not given here
[14] = tested on: Poliovirus type 1 (Polio 1, Sabin); assay: microbe, parasite or virus in culture; type: cell-based
[15] = tested on: HRV3(FEB); assay: Anti-rhinovirus spectrum (MTT), HRV3; type: cell-based, human rhinovirus; set-up: Anti-Rhinovirus activity, HRV3: unit not given here; settings: HRV3
[16] = tested on: HRV29 (5582); assay: Anti-rhinovirus spectrum (MTT), HRV29; type: cell-based, human rhinovirus; set-up: Anti-Rhinovirus activity, HRV29: unit not given here; settings: HRV29
[17] = tested on: HRV1A (E28); assay: Anti-rhinovirus activity (MTT), HRV1A; type: cell-based, human rhinovirus; set-up: Anti-Rhinovirus activity, HRV1A: unit not given here
[18] = tested on: HRV13 (353); assay: Anti-rhinovirus spectrum (MTT), HRV13; type: cell-based, human rhinovirus; set-up: Anti-Rhinovirus activity, HRV13: unit not given here; settings: HRV13
[19] = tested on: HRV 2 (HGP); assay: Anti-rhinovirus activity (MTT), HRV2; type: cell-based, human rhinovirus; set-up: Anti-Rhinovirus activity, HRV2: unit not given here
[20] = tested on: echovirus type 11 (Echo 11, Gregory); assay: In vitro anti-picornavirus activity (MTT), Echo 11; type: cell-based; settings: HeLa-S3 cells, MTT method, 37° C.
[21] = tested on: coxsackievirus type A7 (CA7); assay: In vitro anti-picornavirus activity (MTT), CA7; type: cell-based; settings: HeLa-S3 cells, MTT method, 37° C.
[22] = tested on: HRV41 (56110); assay: Anti-rhinovirus spectrum (MTT), HRV41; type: cell-based, human rhinovirus; set-up: Anti-Rhinovirus activity, HRV41: unit not given here; settings: HRV41
[23] = tested on: HRV31 (41F); assay: Anti-rhinovirus spectrum (MTT), HRV31; type: cell-based, human rhinovirus; set-up: Anti-Rhinovirus activity, HRV31: unit not given here; settings: HRV31
[24] = tested on: HeLa cells; assay: Cytotoxicity (MTT, without virus), HeLa; settings: HeLa, no virus, incubated for 4 days
[25] = tested on: HRV10 (204-CV14); assay: Anti-rhinovirus spectrum (MTT), HRV10; type: cell-based, human rhinovirus; set-up: Anti-Rhinovirus activity, HRV10: unit not given here; settings: HRV10
[26] = tested on: human rhinovirus type 1B (HRV 1B, B632); assay: Anti-rhinovirus activity (MTT), HRV1B; type: cell-based; set-up: Anti-Rhinovirus activity, HRV1B: unit not given here
[27] = tested on: coxsackievirus type B4 (CB4,JVB); assay: In vitro anti-picornavirus activity (MTT), CB4; type: cell-based; settings: HeLa cells, MTT method, 37° C.
[28] = tested on: HRV33 (1200); assay: Anti-rhinovirus spectrum (MTT), HRV33; type: cell-based, human rhinovirus; set-up: Anti-Rhinovirus activity, HRV33: unit not given here; settings: HRV33
[29] = tested on: HRV32 (363); assay: Anti-rhinovirus spectrum (MTT), HRV32; type: cell-based, human rhinovirus; set-up: Anti-Rhinovirus activity, HRV32: unit not given here; settings: HRV32
[30] = tested on: HRV39 (209); assay: Anti-rhinovirus spectrum (MTT), HRV39; type: cell-based, human rhinovirus; set-up: Anti-Rhinovirus activity, HRV39: unit not given here; settings: HRV39
[31] = tested on: HRV8(MRH); assay: Anti-rhinovirus spectrum (MTT), HRV8; type: cell-based, human rhinovirus; set-up: Anti-Rhinovirus activity, HRV8: unit not given here; settings: HRV8
[32] = HeLa (Ohio strain) cells, MTT method, 33° C.

For `CCc1ccc2c(c1)Cc1c-2n(CC)c2ccc(C(C)C)cc2c1=O` [Compound B9, 2.5-Diethyl-8-isopropyl-5,10-dihydro-11H-indeno[1,2-b]quinolin-10-one], the “Anti-Rhinovirus activity, HRV21” value [1] was 0.16, the “Anti-Rhinovirus activity, HRV89” value ([2]; HRV89) was 0.21 and the “IC50 HRV89” value [2, 32] was 0.21 µg/mL (≈ 0.634 µM). The “Anti-Rhinovirus activity, HRV36” value [3] was 0.16, the “Anti-Rhinovirus activity, Clinical isolated strain” value [4] was 0.31 and the “Anti-Rhinovirus activity, HRV50” value [5] was 0.13. The “Anti-Rhinovirus activity, HRV16” value [6] was 0.47, the “Anti-rotavirus activity IC50 SRoV(SA11)” value [7] was 0.59 µg/mL and the “Cytotoxicity CC50 HeLa-S3” value [8] was greater than 1 µg/mL. For the same molecule, the “Anti-Rhinovirus activity, HRV61” value [9] was 0.16, the “Anti-rotavirus activity IC50 HRoV(Odelia)” value [10] was 0.56 µg/mL and the “Anti-Rhinovirus activity, HRV5” value [11] was 0.17. The “Cytotoxicity CC50 HeLa(Ohio)” value [12] was greater than 1 µg/mL, the “Anti-Rhinovirus activity, HRV14” value ([13]; HRV14) was 0.58 and the “IC50 HRV 14” value [13, 32] was 0.58 µg/mL (≈ 1.75 µM). For the same molecule, the “IC50 Polio 1” value [14] was 0.18 µg/mL (≈ 0.543 µM), the “Anti-Rhinovirus activity, HRV3” value [15] was 0.23 and the “Anti-Rhinovirus activity, HRV29” value [16] was 0.19. For the same molecule, the “Anti-Rhinovirus activity, HRV1A” value ([17]; HRV1A) was greater than 1.0, the “IC50 HRV 1A” value [17, 32] was greater than 1 µg/mL and the “Anti-Rhinovirus activity, HRV13” value [18] was 0.14. The “Anti-Rhinovirus activity, HRV2” value ([19]; HRV2) was 0.20, the “IC50 HRV2” value [19, 32] was 0.20 µg/mL (≈ 0.603 µM) and the “IC50 Echo 11” value [20] was 0.18 µg/mL (≈ 0.543 µM). For the same molecule, the “IC50 CA7” value [21] was 0.71 µg/mL (≈ 2.14 µM), the “Anti-Rhinovirus activity, HRV41” value [22] was 0.13 and the “Anti-Rhinovirus activity, HRV31” value [23] was 0.15. For the same molecule, the “Cytotoxicity CC50 HeLa” value [24] was greater than 1 µg/mL, the “Anti-Rhinovirus activity, HRV10” value [25] was 0.47 and the “Anti-Rhinovirus activity, HRV1B” value ([26]; HRV1B) was 0.25. The “IC50 HRV1B” value [26, 32] was 0.25 µg/mL (≈ 0.754 µM), the “IC50 CB4” value [27] was 0.56 µg/mL (≈ 1.69 µM) and the “Anti-Rhinovirus activity, HRV33” value [28] was 0.094. For the same molecule, the “Anti-Rhinovirus activity, HRV32” value [29] was 0.13, the “Anti-Rhinovirus activity, HRV39” value [30] was 0.20 and the “Anti-Rhinovirus activity, HRV8” value [31] was 0.15.
